Assay results published in US20230284620A1, “MIXTURES OF PYRIDAZINES AS HERBICIDAL COMPOSITIONS” (SYNGENTA CROP PROTECTION AG, priority 2020, published 2023).
Where “and” joins values, the source holds several entries; their conditions need not be identical. Identical values can stand only once.

Key:
Assay in all cases: Post-emergence glasshouse herbicide test, visual phytotoxicity
Format in all cases: in vivo
Conditions in all cases: 13 days
[1] = test system: Stellaria media (STEME)
Method: (§1) Seeds of Setaria faberi (SETFA), Echinochloa crus-galli (ECHCG), Digitaria sanguinalis (DIGSA), Lolium perenne (LOLPE), Alopecurus myosuroides (ALOMY), Chenopodium album (CHEAL), Ipomoea hederacea (IPOHE), Stellaria media (STEME), Abutilon threophrasti (ABUTH) and Amaranthus retroflexus (AMARE) were sown in standard sterilised soil in pots. After cultivation for 8 days under controlled conditions in a glasshouse (at 24/19° C., day/night; 16 hours light; no humidity control), the plants were sprayed at 500 l/Ha with an aqueous spray solution derived from the formulation of the technical active ingredients in a small amount of acetone and a solvent and emulsifier mixture referred to as IF50 (11.12% Emulsogen EL360 TM+44.44% N-methylpyrrolidone+44.44% Dowanol DPM glycol ether), to create a 50 g/l solution which was then diluted using 0.2% Genapol X080 (CAS Number: 9043-30-5) as diluent to give the desired final dose of test compound.
(§2) Where active ingredients were applied as mixtures, aqueous spray solutions were prepared as above, containing both active ingredients.
(§3) The test plants were then grown under controlled conditions in a glasshouse (at 24/18° C., day/night; 15 hours light; 50% humidity) and watered twice daily. After 13 days, the test was evaluated visually for percentage phytotoxicity to the plants (where 100=total damage to plant; 0=no damage to plant; and NC=not captured) when compared to control untreated plants. Two to four replicates were applied for each treatment in a randomised block test design.
(§4) 22., E=X+Y−(X*Y/100), where • X=average percent phytotoxicity of herbicide A when applied at a certain rate • Y=average percent phytotoxicity using herbicide B when applied at a certain rate • E=the expected effect of the mixture of herbicides A and B as calculated from the Colby formula.

[2] = test system: Echinochloa crus-galli (ECHCG)
Method: as §1, §2, §3, §4

[3] = test system: Alopecurus myosuroides (ALOMY)
Method: as §1, §2, §3, §4

[4] = test system: Amaranthus retroflexus (AMARE)
Method: as §1, §2, §3, §4

[5] = test system: Lolium perenne (LOLPE)
Method: as §1, §2, §3, §4

[6] = test system: Digitaria sanguinalis (DIGSA)
Method: as §1, §2, §3, §4

[7] = test system: Ipomoea hederacea (IPOHE)
Method: as §1, §2, §3, §4

[8] = test system: Chenopodium album (CHEAL)
Method: as §1, §2, §3, §4

[9] = test system: Setaria faberi (SETFA)
Method: as §1, §2, §3, §4

[10] = test system: Abutilon threophrasti (ABUTH)
Method: as §1, §2, §3, §4

Cc1ccc2ccc(C)c(C3C(=O)C(Cl)=NN(C)C3=O)c2c1 (stereo not shown) [A-I]
percentage phytotoxicity STEME ([1]; 0.625 g/ha): 34% | percentage phytotoxicity STEME ([1]; 1.25 g/ha): 64% and 58% | percentage phytotoxicity STEME ([1]; 2.5 g/ha): 66% | percentage phytotoxicity STEME ([1]; 5 g/ha): 79% | percentage phytotoxicity STEME ([1]; 10 g/ha): 84% | percentage phytotoxicity ECHCG ([2]; 0.625 g/ha): 0% | percentage phytotoxicity ECHCG ([2]; 1.25 g/ha): 0% | percentage phytotoxicity ECHCG ([2]; 2.5 g/ha): 8% | percentage phytotoxicity ECHCG ([2]; 5 g/ha): 39% | percentage phytotoxicity ECHCG ([2]; 10 g/ha): 64% | percentage phytotoxicity ALOMY ([3]; 0.625 g/ha): 0% | percentage phytotoxicity ALOMY ([3]; 1.25 g/ha): 0% | percentage phytotoxicity ALOMY ([3]; 2.5 g/ha): 0% | percentage phytotoxicity ALOMY ([3]; 5 g/ha): 9% and 0% | percentage phytotoxicity ALOMY ([3]; 10 g/ha): 21% | percentage phytotoxicity AMARE ([4]; 0.625 g/ha): 14% | percentage phytotoxicity AMARE ([4]; 1.25 g/ha): 44% | percentage phytotoxicity AMARE ([4]; 2.5 g/ha): 70% | percentage phytotoxicity AMARE ([4]; 5 g/ha): 74% | percentage phytotoxicity AMARE ([4]; 10 g/ha): 73% | percentage phytotoxicity LOLPE ([5]; 0.625 g/ha): 0% and 3% | percentage phytotoxicity LOLPE ([5]; 1.25 g/ha): 0% and 3% | percentage phytotoxicity LOLPE ([5]; 2.5 g/ha): 3% and 1% | percentage phytotoxicity LOLPE ([5]; 10 g/ha): 43% and 35% | percentage phytotoxicity DIGSA ([6]; 0.625 g/ha): 0% and 1% | percentage phytotoxicity DIGSA ([6]; 1.25 g/ha): 0% | percentage phytotoxicity DIGSA ([6]; 2.5 g/ha): 3% and 0% | percentage phytotoxicity DIGSA ([6]; 5 g/ha): 22% and 21% | percentage phytotoxicity IPOHE ([7]; 0.625 g/ha): 13% | percentage phytotoxicity IPOHE ([7]; 2.5 g/ha): 53% and 48% | percentage phytotoxicity IPOHE ([7]; 5 g/ha): 63% | percentage phytotoxicity IPOHE ([7]; 10 g/ha): 74% | percentage phytotoxicity CHEAL ([8]; 0.625 g/ha): 6% | percentage phytotoxicity CHEAL ([8]; 2.5 g/ha): 13% and 16% | percentage phytotoxicity CHEAL ([8]; 5 g/ha): 28% and 26% | percentage phytotoxicity SETFA ([9]; 0.625 g/ha): 0% | percentage phytotoxicity SETFA ([9]; 1.25 g/ha): 0% | percentage phytotoxicity SETFA ([9]; 5 g/ha): 43% | percentage phytotoxicity SETFA ([9]; 10 g/ha): 72% | percentage phytotoxicity ABUTH ([10]; 0.625 g/ha): 6% | percentage phytotoxicity ABUTH ([10]; 2.5 g/ha): 21% | percentage phytotoxicity ABUTH ([10]; 5 g/ha): 58% and 55% | percentage phytotoxicity ABUTH ([10]; 10 g/ha): 60%

CN1C[C@H](c2cccc(C(F)(F)F)c2)[C@@H](C(=O)Nc2ccccc2F)C1=O [B-III]
percentage phytotoxicity STEME ([1]; 3.125 g/ha): 13% | percentage phytotoxicity STEME ([1]; 6.25 g/ha): 21% | percentage phytotoxicity STEME ([1]; 12.5 g/ha): 14% | percentage phytotoxicity STEME ([1]; 25 g/ha): 46% | percentage phytotoxicity STEME ([1]; 50 g/ha): 71% | percentage phytotoxicity ECHCG ([2]; 3.125 g/ha): 70% | percentage phytotoxicity ECHCG ([2]; 6.25 g/ha): 70% | percentage phytotoxicity ECHCG ([2]; 12.5 g/ha): 73% | percentage phytotoxicity ECHCG ([2]; 25 g/ha): 73% | percentage phytotoxicity ECHCG ([2]; 50 g/ha): 75% | percentage phytotoxicity AMARE ([4]; 3.125 g/ha): 4% | percentage phytotoxicity AMARE ([4]; 6.25 g/ha): 6% | percentage phytotoxicity AMARE ([4]; 12.5 g/ha): 10% | percentage phytotoxicity AMARE ([4]; 25 g/ha): 21% | percentage phytotoxicity AMARE ([4]; 50 g/ha): 31% | percentage phytotoxicity LOLPE ([5]; 3.125 g/ha): 30% | percentage phytotoxicity LOLPE ([5]; 6.25 g/ha): 43% | percentage phytotoxicity LOLPE ([5]; 12.5 g/ha): 55% | percentage phytotoxicity LOLPE ([5]; 25 g/ha): 70% | percentage phytotoxicity LOLPE ([5]; 50 g/ha): 75% | percentage phytotoxicity DIGSA ([6]; 3.125 g/ha): 72% | percentage phytotoxicity DIGSA ([6]; 6.25 g/ha): 74% | percentage phytotoxicity DIGSA ([6]; 12.5 g/ha): 78% | percentage phytotoxicity DIGSA ([6]; 25 g/ha): 79% | percentage phytotoxicity DIGSA ([6]; 50 g/ha): 80% | percentage phytotoxicity IPOHE ([7]; 3.125 g/ha): 9% | percentage phytotoxicity IPOHE ([7]; 6.25 g/ha): 11% | percentage phytotoxicity IPOHE ([7]; 12.5 g/ha): 15% | percentage phytotoxicity IPOHE ([7]; 25 g/ha): 24% | percentage phytotoxicity IPOHE ([7]; 50 g/ha): 28% | percentage phytotoxicity CHEAL ([8]; 3.125 g/ha): 6% | percentage phytotoxicity CHEAL ([8]; 6.25 g/ha): 10% | percentage phytotoxicity CHEAL ([8]; 12.5 g/ha): 14% | percentage phytotoxicity CHEAL ([8]; 25 g/ha): 44% | percentage phytotoxicity CHEAL ([8]; 50 g/ha): 56% | percentage phytotoxicity SETFA ([9]; 3.125 g/ha): 66% | percentage phytotoxicity SETFA ([9]; 6.25 g/ha): 68% | percentage phytotoxicity SETFA ([9]; 12.5 g/ha): 70% | percentage phytotoxicity SETFA ([9]; 25 g/ha): 74% | percentage phytotoxicity SETFA ([9]; 50 g/ha): 73% | percentage phytotoxicity ABUTH ([10]; 3.125 g/ha): 10% | percentage phytotoxicity ABUTH ([10]; 6.25 g/ha): 4% | percentage phytotoxicity ABUTH ([10]; 12.5 g/ha): 3% | percentage phytotoxicity ABUTH ([10]; 25 g/ha): 19% | percentage phytotoxicity ABUTH ([10]; 50 g/ha): 18%
